Laboratory results from patent US20140221346A1, “THERAPEUTIC COMPOUNDS” (Gilead Sciences, Inc., priority 2013, published 2014).

How the values were obtained:
[1] = system: HIV-IIIb; assay: Test A: Antiviral Assay in MT4 Cells; assay type: cell-based, HIV-1; details: Human immunodeficiency virus 1, IIIB, MT4, 120 h, read-out: % inhibition at 3 μM
Experimental: (§1) For the antiviral assay, 40 μL of 1× test concentration of 3-fold serially diluted compound in culture medium with 10% FBS was added to each well of a 384-well plate (10 concentrations) in quadruplicate. MT-4 cells were next mixed with HIV-IIIb at an m.o.i of 0.003 for 1 hour, after which time 35 μL of virus/cell mixture (2000 cells) was immediately added to each well containing 40 μL of diluted compound. The plates were then incubated at 37° C. for 5 days. After 5 days of incubation, 25 μl of 2× concentrated CellTiter-Glo™ Reagent (catalog #G7571, Promega Biosciences, Inc., Madison, Wis.) was added to each well containing MT-4 cells. Cell lysis was carried out by incubating at room temperature for 10 min and then chemiluminescence was read.

[2] = Test B: Cytotoxicity Assay; assay type: cell-based; details: human, uninfected MT-4 cells, same protocol as Test A, CellTiter-Glo
Experimental: as §1
Compound cytotoxicity and the corresponding CC50 values was determined using the same protocol as described in the antiviral assay (Test A) except that uninfected cells were used.

SMILES | inhibition at 3 µM [1] [%] | CC50 at 5 days [2] [µM]
NC(=O)c1cc(-c2cnc(NCCN3CCNC3=O)nc2[C@H](Cc2cc(F)cc(F)c2)NC(=O)Cn2nc(C(F)F)c3c2C(F)(F)CCC3(F)F)ccc1F [Compound 22B, (S)-5-(4-(1-(2-(3-(difluoromethyl)-4,4,7,7-tetrafluoro-4,5,6,7-tetrahydro-1H-indazol-1-yl)acetamido)-2-(3,5-difluorophenyl)ethyl)-2-((2-(2-oxoimidazolidin-1-yl)ethyl)amino)pyrimidin-5-yl)-2-fluorobenzamide] | 93 | 34.1
NC(=O)c1cc(-c2cnc(NCCn3ccnn3)nc2[C@H](Cc2cc(F)cc(F)c2)NC(=O)Cn2nc(C(F)F)c3c2C(F)(F)CCC3(F)F)ccc1F [Compound 23F, (S)-5-(2-((2-(1H-1,2,3-triazol-1-yl)ethyl)amino)-4-(1-(2-(3-(difluoromethyl)-4,4,7,7-tetrafluoro-4,5,6,7-tetrahydro-1H-indazol-1-yl)acetamido)-2-(3,5-difluorophenyl)ethyl)pyrimidin-5-yl)-2-fluorobenzamide] | 77 | 32.7
NC(=O)c1cc(-c2cnc(NCCN3CCCC3=O)nc2[C@H](Cc2cc(F)cc(F)c2)NC(=O)Cn2nc(C(F)F)c3c2C(F)(F)CCC3(F)F)ccc1F [Compound 24, (S)-5-(4-(1-(2-(3-(difluoromethyl)-4,4,7,7-tetrafluoro-4,5,6,7-tetrahydro-1H-indazol-1-yl)acetamido)-2-(3,5-difluorophenyl)ethyl)-2-((2-(2-oxopyrrolidin-1-yl)ethyl)amino)pyrimidin-5-yl)-2-fluorobenzamide] | 79 | 37.2
NC(=O)c1cc(-c2cnc(NC3CCOC3)nc2[C@H](Cc2cc(F)cc(F)c2)NC(=O)Cn2nc(C(F)F)c3c2C(F)(F)CCC3(F)F)ccc1F (stereo partly drawn) [Compound 25, 5-(4-((S)-1-(2-(3-(difluoromethyl)-4,4,7,7-tetrafluoro-4,5,6,7-tetrahydro-1H-indazol-1-yl)acetamido)-2-(3,5-difluorophenyl)ethyl)-2-((tetrahydrofuran-3-yl)amino)pyrimidin-5-yl)-2-fluorobenzamide] | 69 | 37.7
NC(=O)c1cc(-c2cnc(NCCO)nc2[C@H](Cc2cc(F)cc(F)c2)NC(=O)Cn2nc(C(F)F)c3c2C(F)(F)CCC3(F)F)ccc1F [Compound 26, (S)-5-(4-(1-(2-(3-(difluoromethyl)-4,4,7,7-tetrafluoro-4,5,6,7-tetrahydro-1H-indazol-1-yl)acetamido)-2-(3,5-difluorophenyl)ethyl)-2-((2-hydroxyethyl)amino)pyrimidin-5-yl)-2-fluorobenzamide] | 86 | 19.9
NC(=O)c1cc(-c2cnc(NCCN3CCOCC3)nc2[C@H](Cc2cc(F)cc(F)c2)NC(=O)Cn2nc(C(F)F)c3c2C(F)(F)CCC3(F)F)ccc1F [Compound 28, (S)-5-(4-(1-(2-(3-(difluoromethyl)-4,4,7,7-tetrafluoro-4,5,6,7-tetrahydro-1H-indazol-1-yl)acetamido)-2-(3,5-difluorophenyl)ethyl)-2-((2-morpholinoethyl)amino)pyrimidin-5-yl)-2-fluorobenzamide] | 81 | 14.1
O=C(Cn1nc(C(F)F)c2c1C(F)(F)CCC2(F)F)N[C@@H](Cc1cc(F)cc(F)c1)c1nc(-n2cncn2)ncc1-c1ccc2c(c1)C(=O)NC2 [Compound 29D, (S)-2-(3-(difluoromethyl)-4,4,7,7-tetrafluoro-4,5,6,7-tetrahydro-1H-indazol-1-yl)-N-(2-(3,5-difluorophenyl)-1-(5-(3-oxoisoindolin-5-yl)-2-(1H-1,2,4-triazol-1-yl)pyrimidin-4-yl)ethyl)acetamide] | 101 | 40
